Measurements as given in ChEMBL document CHEMBL4257456, “Molecular modeling study, synthesis and biological evaluation of combretastatin A-4 analogues as anticancer agents and tubulin inhibitors” (Medchemcomm, 2018).

Experiments:
[1] = tested on: A549; assay: Antiproliferative activity against human A549 cells after 72 hrs by CCK-8 assay; format: functional, cell-based; settings: A549, 72 h
[2] = tested on: HCT-116; assay: Antiproliferative activity against human HCT116 cells after 72 hrs by CCK-8 assay; format: functional, cell-based; settings: HCT-116, 72 h
[3] = tested on: HepG2; assay: Antiproliferative activity against human HepG2 cells after 72 hrs by CCK-8 assay; format: functional, cell-based; settings: HepG2, 72 h
[4] = tested on: MGC-803; assay: Antiproliferative activity against human MGC803 cells after 72 hrs by CCK-8 assay; format: functional, cell-based; settings: MGC-803, 72 h
[5] = tested on: MCF7; assay: Antiproliferative activity against human MCF7 cells after 72 hrs by CCK-8 assay; format: functional, cell-based; settings: MCF7, 72 h
[6] = tested on: HeLa; assay: Antiproliferative activity against human HeLa cells after 72 hrs by CCK-8 assay; format: functional, cell-based
[7] = Inhibition of pig brain tubulin polymerization by spectrophotometric analysis; parameters: species or system Sus scrofa

IC50 [7] [µM]	SMILES	IC50 [1] [µM]	IC50 [2] [µM]	IC50 [3] [µM]	IC50 [4] [µM]	IC50 [5] [µM]	IC50 [6] [µM]
> 200	COc1ccc(-c2oc3cc(OC)c(F)cc3c2C(=O)c2cc(OC)c(OC)c(OC)c2)cc1	6.87	78.2	4.75	47.3	6.49	19.1
> 200	CCOc1ccc(-c2[nH]c3cc(OC)ccc3c2C(=O)c2cc(OC)c(OC)c(OC)c2)cc1	–	–	–	–	–	–
0.86	CCOc1ccc(-c2oc3cc(OC)ccc3c2C(=O)c2cc(OC)c(OC)c(OC)c2)cc1	1.37	12.6	1.31	9.97	0.91	8.99

SMILES	IC50 [7] [µM]	IC50 [1] [µM]	IC50 [2] [µM]	IC50 [3] [µM]	IC50 [4] [µM]	IC50 [5] [µM]	IC50 [6] [µM]
COc1ccc(/C=C\c2cc(OC)c(OC)c(OC)c2)cc1O [COMBRETASTATIN A4]	0.88	5.99	9	16	1.76	0.67	11.3
COc1ccc(/C=C\c2cc(OC)c(OC)c(OC)c2)cc1OP(=O)(O)O [FOSBRETABULIN DISODIUM]	4.79	0.4	0.24	0.27	0.47	0.96	0.56
